PMC8893036 (European journal of medicinal chemistry, 2022)
Like-named read-outs stand apart in the source and are kept apart here. Each block holds one compound with its values, some of them ahead of it.

Legend:
[1] = target: T1, ABCG2 (Homo sapiens, UniProt Q9UNQ0)
T1 sequence (Q9UNQ0 1-655): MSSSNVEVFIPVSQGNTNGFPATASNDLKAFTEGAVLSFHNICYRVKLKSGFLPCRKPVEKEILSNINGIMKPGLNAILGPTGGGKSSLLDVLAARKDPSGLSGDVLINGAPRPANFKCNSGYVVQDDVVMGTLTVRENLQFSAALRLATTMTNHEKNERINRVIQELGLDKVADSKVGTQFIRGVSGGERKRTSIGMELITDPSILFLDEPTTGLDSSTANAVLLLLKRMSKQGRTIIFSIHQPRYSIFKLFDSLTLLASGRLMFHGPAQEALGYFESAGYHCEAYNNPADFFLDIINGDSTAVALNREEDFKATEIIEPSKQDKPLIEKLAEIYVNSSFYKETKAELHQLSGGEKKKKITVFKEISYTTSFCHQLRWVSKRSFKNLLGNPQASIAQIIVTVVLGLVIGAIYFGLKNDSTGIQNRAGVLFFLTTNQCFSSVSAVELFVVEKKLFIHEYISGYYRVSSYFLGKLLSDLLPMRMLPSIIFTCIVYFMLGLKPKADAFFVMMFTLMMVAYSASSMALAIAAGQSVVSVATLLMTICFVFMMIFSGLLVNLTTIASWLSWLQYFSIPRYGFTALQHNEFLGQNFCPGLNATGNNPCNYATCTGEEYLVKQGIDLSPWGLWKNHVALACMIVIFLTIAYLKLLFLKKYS

[2] = target: T2, human A3 adenosine receptor (Homo sapiens, UniProt P0DMS8); conditions: agonists; Tables S1 – S4; cited from earlier work
T2 sequence (P0DMS8 1-318): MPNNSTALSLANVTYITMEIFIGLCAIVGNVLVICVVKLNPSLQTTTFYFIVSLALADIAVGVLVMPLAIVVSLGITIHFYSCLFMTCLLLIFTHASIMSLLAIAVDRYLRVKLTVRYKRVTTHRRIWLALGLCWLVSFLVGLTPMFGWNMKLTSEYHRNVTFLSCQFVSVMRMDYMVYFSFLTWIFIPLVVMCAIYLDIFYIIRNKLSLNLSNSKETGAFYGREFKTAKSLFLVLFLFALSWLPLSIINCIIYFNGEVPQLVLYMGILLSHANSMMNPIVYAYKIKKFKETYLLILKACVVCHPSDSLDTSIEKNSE

[3] = test system: P-gp (ABCB1); conditions: cited from earlier work
[4] = target: T1, ABCG2; assay: ATPase activity of ABCG2, total membranes of High-Five insect cells
[5] = target: T1, ABCG2; assay: in vitro; conditions: pH 6.8
[6] = target: mouse A3 adenosine receptor; conditions: read-out: A3 adenosine receptor affinity Ki; mouse homologue; cited from earlier work
[7] = test system: human A1 receptor; conditions: cited from earlier work
[8] = test system: human A2A receptor; conditions: cited from earlier work

ATPase activity of ABCG2 % Stimulation (upward arrow) ([1]; human, 20 min, 2.5 μM, pH 6.8): ≥ 50%
SMILES: CCOC(=O)[C@]12C[C@@H]1[C@@H](n1ccc3c(NCCCc4ccc(OC)c(O)c4)nc(C#Cc4ccc(Cl)s4)nc31)[C@H](O)[C@@H]2O [Compound 64]

modulation of ABCG2 ATP hydrolysis ([1]; human, 20 min, 2.5 μM, pH 6.8): inhibited only at 10 μM
SMILES: CNC(=O)[C@]12C[C@@H]1[C@@H](n1cnc3c(NCc4cccc(-n5cc(-c6ccc(F)c(F)c6)nn5)c4)nc(C#Cc4ccc(F)cc4F)nc31)[C@H](O)[C@@H]2O [Compound 19]

SMILES: CNC(=O)[C@]12C[C@@H]1[C@@H](n1cnc3c(NCc4cccc(-n5cc(-c6ccc(F)c(F)c6)nn5)c4)nc(C#Cc4ccc(F)c(F)c4)nc31)[C@H](O)[C@@H]2O [Compound 17]
human A3 adenosine receptor affinity [2]: single digit nM affinity
effect on ATPase activity of P-gp [3]: partially inhibited the basal ATPase activity of P-gp

SMILES: CNC(=O)[C@]12C[C@@H]1[C@@H](n1cnc3c(NCc4cccc(-n5cc(-c6ccc(F)c(F)c6)nn5)c4)nc(C#Cc4cc(F)c(F)c(F)c4)nc31)[C@H](O)[C@@H]2O [Compound 20]
modulation of ABCG2 ATP hydrolysis [1]: inhibited ATP hydrolysis at both concentrations

SMILES: CNC(=O)[C@H]1O[C@@H](n2cnc3c(NCc4cccc(I)c4)nc(Cl)nc32)[C@H](O)[C@@H]1O [Compound 4, reference compound]
modulation of ABCG2 ATP hydrolysis [1]: stimulated ATP hydrolysis at multiple concentrations

SMILES: CCCNc1nc(C#Cc2ccc(Cl)s2)nc2c1ncn2[C@H]1[C@H](O)[C@H](O)[C@@]2(C(=O)NC)C[C@H]12 [Compound 26]
modulation of ABCG2 ATP hydrolysis [1]: stimulated ATP hydrolysis at multiple concentrations

SMILES: CNC(=O)[C@H]1O[C@@H](n2cnc3c(NC)nc(C#Cc4ccc(Cl)s4)nc32)[C@H](O)[C@@H]1O [Compound 32]
effect on ATPase activity of P-gp [3]: very weak at P-gp

SMILES: CNc1nc(C#Cc2ccc(Cl)s2)nc2c1ncn2[C@H]1[C@H](O)[C@H](O)[C@@]2(C(=O)Oc3ccccc3)C[C@H]12 [Compound 50]
modulation of ABCG2 ATP hydrolysis [1]: stimulated ATP hydrolysis at multiple concentrations
human A3 adenosine receptor affinity [2]: single digit nM affinity

modulation of ABCG2 ATP hydrolysis ([1]; human, 20 min, 2.5 μM, pH 6.8): inhibited only at 10 μM
SMILES: CNC(=O)[C@]12C[C@@H]1[C@@H](n1cnc3c(NCc4cccc(-n5cc(-c6ccc(F)c(F)c6)nn5)c4)nc(C#Cc4ccc(C(F)(F)F)cc4)nc31)[C@H](O)[C@@H]2O [Compound 21]

SMILES: CNc1nc(C#Cc2ccc(Cl)s2)nc2c1ncn2[C@H]1[C@H](O)[C@H](O)[C@@]2(C(=O)OC)C[C@H]12 [Compound 27]
modulation of ABCG2 ATP hydrolysis [1]: stimulated ATP hydrolysis at multiple concentrations

SMILES: CNC(=O)[C@]12C[C@@H]1[C@@H](n1cnc3c(NCc4cccc(Cl)c4)nc(C#Cc4ccccc4)nc31)[C@H](O)[C@@H]2O [Compound 8]
modulation of ABCG2 ATP hydrolysis [4]: stimulated ATP hydrolysis at 2.5 μM, but not 10 μM

SMILES: CNC(=O)[C@]12C[C@@H]1[C@@H](n1cnc3c(NCc4cccc(Cl)c4)nc(C#Cc4cccc(Cl)c4)nc31)[C@H](O)[C@@H]2O [Compound 10]
modulation of ABCG2 ATP hydrolysis [4]: stimulated ATP hydrolysis at 2.5 μM, but not 10 μM

modulation of ABCG2 ATP hydrolysis ([1]; human, 20 min, 2.5 μM, pH 6.8): inhibited only at 10 μM
SMILES: CNC(=O)[C@]12C[C@@H]1[C@@H](n1cnc3c(NCc4cccc(Cl)c4)nc(-n4cc(-c5ccc(F)c(F)c5)nn4)nc31)[C@H](O)[C@@H]2O [Compound 28]

inhibition at 20 min, 2.5 µM [5]: ≥ 50%
SMILES: CNC(=O)[C@]12C[C@@H]1[C@@H](n1cnc3c(NCc4cccc(-n5cc(-c6ccc(F)c(F)c6)nn5)c4)nc(C#Cc4ccc(F)cc4)nc31)[C@H](O)[C@@H]2O [Compound 16]

SMILES: CCCOC(=O)[C@]12C[C@@H]1[C@@H](n1cnc3c(NC)nc(C#Cc4ccc(Cl)s4)nc31)[C@H](O)[C@@H]2O [Compound 45]
modulation of ABCG2 ATP hydrolysis [1]: stimulated ATP hydrolysis at multiple concentrations
human A3 adenosine receptor affinity [2]: single digit nM affinity

SMILES: CCOC(=O)[C@]12C[C@@H]1[C@@H](n1ccc3c(NCCc4ccccc4)nc(C#Cc4ccccc4)nc31)[C@H](O)[C@@H]2O [Compound 60]
Ki [6]: > 10 µM
activity at human A1 receptor [7]: inactive
activity at human A2A receptor [8]: inactive

SMILES: CNC(=O)[C@]12C[C@@H]1[C@@H](n1cnc3c(NCc4cccc(Cl)c4)nc(C#Cc4ccc(Cl)s4)nc31)[C@H](O)[C@@H]2O [Compound 29]
modulation of ABCG2 ATP hydrolysis [1]: stimulated ATP hydrolysis at multiple concentrations

SMILES: COc1cc(CCNC2=NC(C#Cc3ccc(Cl)s3)=NC3=NC=NC32)ccc1O (centres unmarked) [Compound 37c]
activity at human A1 receptor ([7]; adenine series): inactive
activity at human A2A receptor ([8]; adenine series): inactive

SMILES: CNC(=O)[C@]12C[C@@H]1[C@@H](n1cnc3c(NC)nc(C#Cc4ccc(Cl)s4)nc31)[C@H](O)[C@@H]2O [Compound 25]
modulation of ABCG2 ATP hydrolysis [4]: stimulated ATP hydrolysis at 2.5 μM, but not 10 μM

SMILES: CCCNc1nc(C#Cc2ccc(Cl)s2)nc2c1ncn2[C@@H]1O[C@H](C(=O)NC)[C@@H](O)[C@H]1O [Compound 33]
modulation of ABCG2 ATP hydrolysis [1]: stimulated ATP hydrolysis at multiple concentrations

ATPase activity of ABCG2 % Stimulation (upward arrow) ([1]; human, 20 min, 2.5 μM, pH 6.8): ≥ 50%
SMILES: CCOC(=O)[C@]12C[C@@H]1[C@@H](n1cnc3c(NCCc4ccc(O)c(OC)c4)nc(C#Cc4ccc(Cl)s4)nc31)[C@H](O)[C@@H]2O [Compound 55]

ATPase activity of ABCG2 % Stimulation (upward arrow) ([4]; 2.5 μM, basal ATPase activity = 0%, mean ± SD, three experiments): ≥ 50%
SMILES: CNC(=O)[C@]12C[C@@H]1[C@@H](n1cnc3c(NCc4cccc(Cl)c4)nc(C#Cc4ccc(F)c(F)c4)nc31)[C@H](O)[C@@H]2O [Compound 5]
human A3 adenosine receptor affinity [2]: single digit nM affinity
effect on ATPase activity of P-gp [3]: stimulate the ATPase activity of P-gp
modulation of ABCG2 ATP hydrolysis [4]: stimulated ATP hydrolysis at multiple concentrations

SMILES: O[C@@H]1[C@H](O)[C@@H]2C[C@@H]2[C@H]1n1cnc2c(NCc3cccc(Cl)c3)nc(C#Cc3ccc(F)c(F)c3)nc21 [Compound 30]
increase of P-gp ATPase activity ([3]; 2.5 μM): 116%

ATPase activity of ABCG2 % Stimulation (upward arrow) ([1]; human, 20 min, 2.5 μM, pH 6.8): ≥ 50%
SMILES: CCOC(=O)[C@]12C[C@@H]1[C@@H](n1ccc3c(NCCCc4ccc(OC)c(O)c4)nc(C#Cc4ccccc4)nc31)[C@H](O)[C@@H]2O [Compound 63]

SMILES: CNC(=O)[C@]12C[C@@H]1[C@@H](n1cnc3c(N[C@H]4C[C@@H]4c4ccc(F)c(F)c4)nc(C#Cc4cccc(F)c4)nc31)[C@H](O)[C@@H]2O [Compound 15]
modulation of ABCG2 ATP hydrolysis ([1]; human, 20 min, 2.5 μM, pH 6.8): stimulated ATP hydrolysis at 2.5 μM, but not 10 μM
human A3 adenosine receptor affinity [2]: single digit nM affinity
